Laboratory results taken from PubChem BioAssay (NCI).
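GI50: concentration for 50% inhibition of growth. Definition used: TGI = concentration required for complete inhibition of growth.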

Key:
Assay in all cases: growth of human tumour cells (NCI), 384-well format
786-0 renal = system: 786-0 renal
A498 renal = system: A498 renal
A549 NSCLC = system: A549 NSCLC
ACHN renal = system: ACHN renal
BT-549 breast = system: BT-549 breast
CAKI-1 renal = system: CAKI-1 renal
CCRF-CEM leukemia = system: CCRF-CEM leukemia
COLO 205 colon = system: COLO 205 colon
DU-145 prostate = system: DU-145 prostate
EKVX NSCLC = system: EKVX NSCLC
HCC-2998 colon = system: HCC-2998 colon
HCT-116 colon = system: HCT-116 colon
HCT-15 colon = system: HCT-15 colon
HL-60(TB) leukemia = system: HL-60(TB) leukemia
HOP-62 NSCLC = system: HOP-62 NSCLC
HOP-92 NSCLC = system: HOP-92 NSCLC
HT29 colon = system: HT29 colon
IGROV1 ovarian = system: IGROV1 ovarian
K-562 leukemia = system: K-562 leukemia
KM12 colon = system: KM12 colon
LOX IMVI melanoma = system: LOX IMVI melanoma
M14 melanoma = system: M14 melanoma
MALME-3M melanoma = system: MALME-3M melanoma
MCF7 breast = system: MCF7 breast
MDA-MB-231 breast = system: MDA-MB-231 breast
MDA-MB-435 melanoma = system: MDA-MB-435 melanoma
MDA-MB-468 breast = system: MDA-MB-468 breast
MOLT-4 leukemia = system: MOLT-4 leukemia
NCI-H226 lung = system: NCI-H226 lung
NCI-H23 lung = system: NCI-H23 lung
NCI-H322M lung = system: NCI-H322M lung
NCI-H460 NSCLC = system: NCI-H460 NSCLC
NCI-H522 lung = system: NCI-H522 lung
NCI/ADR-RES ovarian = system: NCI/ADR-RES ovarian
OVCAR-3 ovarian = system: OVCAR-3 ovarian
OVCAR-4 ovarian = system: OVCAR-4 ovarian
OVCAR-5 ovarian = system: OVCAR-5 ovarian
OVCAR-8 ovarian = system: OVCAR-8 ovarian
PC-3 prostate = system: PC-3 prostate
RPMI-8226 leukemia = system: RPMI-8226 leukemia
RXF 393 renal = system: RXF 393 renal
SF-268 CNS = system: SF-268 CNS
SF-295 CNS = system: SF-295 CNS
SF-539 CNS = system: SF-539 CNS
SK-MEL-2 melanoma = system: SK-MEL-2 melanoma
SK-MEL-28 melanoma = system: SK-MEL-28 melanoma
SK-MEL-5 melanoma = system: SK-MEL-5 melanoma
SK-OV-3 ovarian = system: SK-OV-3 ovarian
SN12C renal = system: SN12C renal
SNB-19 CNS = system: SNB-19 CNS
SNB-75 CNS = system: SNB-75 CNS
SR leukemia = system: SR leukemia
SW-620 colon = system: SW-620 colon
T-47D breast = system: T-47D breast
TK-10 renal = system: TK-10 renal
U251 glioblastoma = system: U251 glioblastoma
UACC-257 melanoma = system: UACC-257 melanoma
UACC-62 melanoma = system: UACC-62 melanoma
UO-31 renal = system: UO-31 renal

Compound: C[C@H]1CN(C2COC2)CCN1c1ccc(Nc2cc(-c3ccnc(N4CCn5c(cc6c5CC(C)(C)C6)C4=O)c3CO)cn(C)c2=O)nc1
- GI50 ([…]-0 renal): 21.8 µM
- TGI (786-0 renal): > 52.2 µM
- GI50 (A498 renal): 14.3 µM
- TGI (A498 renal): 28.2 µM
- GI50 (A549 NSCLC): 18.5 µM
- TGI (A549 NSCLC): > 54.3 µM
- GI50 (ACHN renal): 19.9 µM
- TGI (ACHN renal): > 54.2 µM
- GI50 (BT-549 breast): 18.9 µM
- TGI (BT-549 breast): 40.9 µM
- GI50 (CAKI-1 renal): 17.8 µM
- TGI (CAKI-1 renal): > 48.1 µM
- GI50 (CCRF-CEM leukemia): 3.36 µM
- TGI (CCRF-CEM leukemia): 13.4 µM
- GI50 (COLO 205 colon): 19.8 µM
- TGI (COLO 205 colon): 39.8 µM
- GI50 (DU-145 prostate): 30.8 µM
- TGI (DU-145 prostate): 97.1 µM
- GI50 (EKVX NSCLC): 76.9 µM
- TGI (EKVX NSCLC): > 100 µM
- GI50 (HCC-2998 colon): 3.62 µM
- TGI (HCC-2998 colon): 14.5 µM
- GI50 (HCT-116 colon): 20.6 µM
- TGI (HCT-116 colon): > 52.4 µM
- GI50 (HCT-15 colon): 28.3 µM
- TGI (HCT-15 colon): > 55.3 µM
- GI50 (HL-60(TB) leukemia): 12.9 µM
- TGI (HL-60(TB) leukemia): 25.9 µM
- GI50 (HOP-62 NSCLC): 17.8 µM
- TGI (HOP-62 NSCLC): > 48.1 µM
- GI50 (HOP-92 NSCLC): 1.15 µM
- TGI (HOP-92 NSCLC): 6.86 µM
- GI50 (HT29 colon): 20.5 µM
- TGI (HT29 colon): > 50.1 µM
- GI50 (IGROV1 ovarian): 15.5 µM
- TGI (IGROV1 ovarian): 33.9 µM
- GI50 (K-562 leukemia): 20.6 µM
- TGI (K-562 leukemia): > 53.8 µM
- GI50 (KM12 colon): 26.2 µM
- TGI (KM12 colon): > 58.9 µM
- GI50 (LOX IMVI melanoma): 17.7 µM
- TGI (LOX IMVI melanoma): 31.7 µM
- GI50 (M14 melanoma): 35 µM
- TGI (M14 melanoma): > 54.7 µM
- GI50 (MALME-3M melanoma): 34.8 µM
- TGI (MALME-3M melanoma): > 54 µM
- GI50 (MCF7 breast): 14.1 µM
- TGI (MCF7 breast): > 44 µM
- GI50 (MDA-MB-231 breast): 6.46 µM
- TGI (MDA-MB-231 breast): 20.4 µM
- GI50 (MDA-MB-435 melanoma): 26.2 µM
- TGI (MDA-MB-435 melanoma): > 55.9 µM
- GI50 (MDA-MB-468 breast): 14.5 µM
- TGI (MDA-MB-468 breast): 32.8 µM
- GI50 (MOLT-4 leukemia): 0.731 µM
- TGI (MOLT-4 leukemia): 1.93 µM
- GI50 (NCI-H226 lung): 11.8 µM
- TGI (NCI-H226 lung): 28.4 µM
- GI50 (NCI-H23 lung): 33.5 µM
- TGI (NCI-H23 lung): > 78.7 µM
- GI50 (NCI-H322M lung): 28.6 µM
- TGI (NCI-H322M lung): > 72.8 µM
- GI50 (NCI-H460 NSCLC): 37.7 µM
- TGI (NCI-H460 NSCLC): > 100 µM
- GI50 (NCI-H522 lung): 12.7 µM
- TGI (NCI-H522 lung): 37.2 µM
- GI50 (NCI/ADR-RES ovarian): 20.8 µM
- TGI (NCI/ADR-RES ovarian): 55.9 µM
- GI50 (OVCAR-3 ovarian): 10.7 µM
- TGI (OVCAR-3 ovarian): 24.7 µM
- GI50 (OVCAR-4 ovarian): 13.3 µM
- TGI (OVCAR-4 ovarian): > 51.6 µM
- GI50 (OVCAR-5 ovarian): 24.1 µM
- TGI (OVCAR-5 ovarian): > 67.1 µM
- GI50 (OVCAR-8 ovarian): 20.9 µM
- TGI (OVCAR-8 ovarian): > 60.7 µM
- GI50 (PC-3 prostate): 28.1 µM
- TGI (PC-3 prostate): 90.1 µM
- GI50 (RPMI-8226 leukemia): 0.86 µM
- TGI (RPMI-8226 leukemia): 2.55 µM
- GI50 (RXF 393 renal): 3.89 µM
- TGI (RXF 393 renal): 26.8 µM
- GI50 (SF-268 CNS): 16.8 µM
- TGI (SF-268 CNS): 35.4 µM
- GI50 (SF-295 CNS): 35 µM
- TGI (SF-295 CNS): > 60.1 µM
- GI50 (SF-539 CNS): 25.5 µM
- TGI (SF-539 CNS): > 53.4 µM
- GI50 (SK-MEL-2 melanoma): 4.87 µM
- TGI (SK-MEL-2 melanoma): 24.5 µM
- GI50 (SK-MEL-28 melanoma): > 36.9 µM
- TGI (SK-MEL-28 melanoma): > 53 µM
- GI50 (SK-MEL-5 melanoma): 27.8 µM
- TGI (SK-MEL-5 melanoma): > 48.2 µM
- GI50 (SK-OV-3 ovarian): 16.3 µM
- TGI (SK-OV-3 ovarian): 35.7 µM
- GI50 (SN12C renal): 20.2 µM
- TGI (SN12C renal): 44.5 µM
- GI50 (SNB-19 CNS): 29.8 µM
- TGI (SNB-19 CNS): > 85.4 µM
- GI50 (SNB-75 CNS): 30.5 µM
- TGI (SNB-75 CNS): 81.6 µM
- GI50 (SR leukemia): 5.31 µM
- TGI (SR leukemia): 18.4 µM
- GI50 (SW-620 colon): 17.5 µM
- TGI (SW-620 colon): 38.1 µM
- GI50 (T-47D breast): 20.3 µM
- TGI (T-47D breast): > 59.5 µM
- GI50 (TK-10 renal): 17 µM
- TGI (TK-10 renal): 32.8 µM
- GI50 (U251 glioblastoma): 41.4 µM
- TGI (U251 glioblastoma): > 100 µM
- GI50 (UACC-257 melanoma): 16.4 µM
- TGI (UACC-257 melanoma): 34.5 µM
- GI50 (UACC-62 melanoma): 14.6 µM
- TGI (UACC-62 melanoma): > 54.6 µM
- GI50 (UO-31 renal): 16.2 µM
- TGI (UO-31 renal): 29.8 µM
